Measurements taken from patent US9102648B1, “Bioavailable diacylhydrazine ligands for modulating the expression of exogenous genes via an ecdysone receptor complex” (Intrexon Corporation, priority 2003, dated 2015).
Where two headings read alike, the source gives them in different places.

Legend:
[1] = molecular target: T1, Bombyx mori EcR (VP16 fusion, CVBE switch construct) (Bombyx mori, UniProt P49881); assay: Z3 Assay (HEK-293 cells with CVBE and 6XEcRE LacZ, β-galactosidase reporter); conditions: for Fold Induction, Z3 Assay, 3.3 uM: 3.3 uM ligand; for Fold Induction, Z3 Assay, 3.3 uM / Fold Induction, Z3 Assay, 33 uM: ligand treated / DMSO treated cells; for Fold Induction, Z3 Assay, 33 uM: 33 uM ligand; for Z3 assay Rel Max FI: maximum fold induction at any concentration relative to that of GS-E ligand
T1 sequence (P49881 86-606): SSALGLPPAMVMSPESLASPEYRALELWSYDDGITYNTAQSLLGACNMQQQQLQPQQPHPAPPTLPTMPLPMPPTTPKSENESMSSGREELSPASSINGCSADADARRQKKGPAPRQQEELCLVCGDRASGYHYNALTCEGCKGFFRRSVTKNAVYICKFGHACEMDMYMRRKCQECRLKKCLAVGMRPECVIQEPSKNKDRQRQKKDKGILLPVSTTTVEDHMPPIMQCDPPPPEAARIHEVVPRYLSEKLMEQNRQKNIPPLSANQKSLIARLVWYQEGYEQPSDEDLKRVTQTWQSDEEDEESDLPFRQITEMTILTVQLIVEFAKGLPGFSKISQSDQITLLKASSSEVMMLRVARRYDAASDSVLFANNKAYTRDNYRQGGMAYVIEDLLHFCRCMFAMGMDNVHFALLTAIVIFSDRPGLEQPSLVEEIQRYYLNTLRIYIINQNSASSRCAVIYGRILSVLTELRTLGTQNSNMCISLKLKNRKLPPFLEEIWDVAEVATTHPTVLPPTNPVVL
T1 sequence (P19793 1-462 partner): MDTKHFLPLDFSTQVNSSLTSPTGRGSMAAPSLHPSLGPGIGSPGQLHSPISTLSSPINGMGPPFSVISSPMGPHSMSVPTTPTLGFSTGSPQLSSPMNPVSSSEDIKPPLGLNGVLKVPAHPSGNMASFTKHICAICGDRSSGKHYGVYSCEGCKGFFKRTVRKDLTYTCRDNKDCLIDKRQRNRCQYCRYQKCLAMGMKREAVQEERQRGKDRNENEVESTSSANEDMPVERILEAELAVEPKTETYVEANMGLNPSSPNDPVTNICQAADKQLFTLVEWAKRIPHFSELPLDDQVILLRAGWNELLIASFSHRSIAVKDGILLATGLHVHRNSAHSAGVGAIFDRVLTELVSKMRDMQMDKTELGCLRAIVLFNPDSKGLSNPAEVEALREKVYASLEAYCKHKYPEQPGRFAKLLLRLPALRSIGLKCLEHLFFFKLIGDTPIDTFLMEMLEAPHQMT

[2] = molecular target: GAL4 DBD-CfEcR(DEF)/VP16AD-MmRXRE (Choristoneura fumiferana, UniProt O77240); assay: 13B3 Assay (CHO stable cell line, luciferase reporter); conditions: for Fold Induction, 13B3 Assay, 3.3 uM: 3.3 uM ligand; for Fold Induction, 13B3 Assay, 3.3 uM / Fold Induction, 13B3 Assay, 33 uM: RLU ligand treated / RLU DMSO treated cells; for Fold Induction, 13B3 Assay, 33 uM: 33 uM ligand; for 13B3 assay Rel Max FI: maximum fold induction at any concentration relative to that of GS-E ligand, CHO 13B3 cells
Summary of the method: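 Ligands dosed at 8 levels from 33 to 0.01 μM (DMSO stocks diluted 300-fold) onto the 13B3 CHO line carrying GAL4-DBD/CfEcR-DEF, VP16/MmRXR-DE and a GAL4-responsive luciferase gene.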

[3] = read-out: Z3 assay EC50, HEK-293 Z3 cells, β-galactosidase reporter, average of two wells
[4] = read-out: 13B3 EC50, CHO 13B3 stable cell line, luciferase reporter, 48 h, average of two wells

SMILES	Fold Induction, Z3 Assay, 3.3 uM ([1]; average of two wells)	Fold Induction, Z3 Assay, 33 uM ([1]; average of two wells)	Z3 assay Rel Max FI ([1]; HEK-293 Z3 cells)	EC50 [1, 3] [nM]	Fold Induction, 13B3 Assay, 3.3 uM ([2]; average of two wells)	Fold Induction, 13B3 Assay, 33 uM ([2]; average of two wells)	13B3 assay Rel Max FI [2]	EC50 [2, 4] [nM]	EC50 [1] [nM]	fold induction at 3.3 µM ([1]; HEK293, read-out: Fold Induction, Z3 Assay, 3.3 uM)	fold induction at 33 µM ([1]; HEK293, read-out: Fold Induction, Z3 Assay, 33 uM)	EC50 [2] [nM]	fold induction at 3.3 µM ([2]; read-out: Fold Induction, 13B3 Assay, 3.3 uM)	fold induction at 33 µM ([2]; read-out: Fold Induction, 13B3 Assay, 33 uM)
COc1cc(C)cc(C(=O)N(NC(=O)c2cccc(OC)c2C)C(C)(C)C)c1 [RG-100767]	825	371	0.996	251	4504	682	0.920	1060						
Cc1c(C(=O)NN(C(=O)c2cc(F)c(F)c(F)c2F)C(C)(C)C)ccc2c1CCCO2 [RG-115518]	232	803	0.834	257	1644	926	0.648	1250						
COc1cccc(C(=O)NN(C(=O)c2cc(C)cc(C)c2)C(C)(C)C)c1N [RG-115378]	488	1464	0.947	324	1778	2424	0.655	1760						
CCc1c(OC)cccc1C(=O)NN(C(=O)c1cc(C)cc(COC(C)=O)c1)C(C)(C)C [RG-115223]	323	1299	0.925	1900	8	3437	1.346	> 50000						
Cc1c(C(=O)NN(C(=O)c2ccc(F)cc2)C(C)(C)C)ccc2c1CCCO2 [RG-115118]	90	1160	0.969	234	979	769	0.530	689						
CCc1c(OC)cccc1C(=O)NN(C(=O)c1cc(C)cc(C)c1)C(C)(C)C=NNC(=O)C(N)=O [RG-115597, oxamic carbazide of 2-ethyl-3-methoxy-benzoic acid N′-(3,5-dimethyl-benzoyl)-N′-(1,1-dimethyl-2-oxo-ethyl)-hydrazide]		942				4667								
Cc1c(C(=O)NN(C(=O)c2cc(F)c(Cl)cc2Cl)C(C)(C)C)ccc2c1CCCO2 [RG-115539]		339		151	20	592	0.955	5000						
Cc1c(C(=O)NN(C(=O)c2cc(F)c(F)c(F)c2)C(C)(C)C)ccc2c1CCCO2 [RG-115575, 3,4,5-Trifluoro-benzoic acid N-tert-butyl-N′-(5-methyl-chroman-6-carbonyl)-hydrazide]			0.886				0.641		102	282	785	271	3080	865
Cc1c(C(=O)NN(C(=O)c2ccc(F)cc2)C(C)(C)C)ccc2c1OCO2 [RG-100448]		423		2820		2								
COc1cccc(C(=O)N(NC(=O)c2ccc3c(c2C)OCCO3)C(C)(C)C)c1 [RG-100360]	870	891	1.073	257	1111	745	0.825	588						
CCc1c(C(=O)NN(C(=O)c2ccccc2OC)C(C)(C)C)ccc2c1OCCO2 [RG-100690]	779	475	1.008	240	1094	500	0.506	268						
CCc1ccc(C(=O)NN(C(=O)c2cc(C)cc(C)c2)C(C)(C)C)cc1 [RG-102125]									174			479		
COc1ccccc1C(=O)N(NC(=O)c1ccc2c(c1C)CCCO2)C(C)(C)C [RG-115102]	88	865	0.858	139	1425	109	0.546	930						
Cc1c(C(=O)NN(C(=O)c2ccc(F)c(F)c2)C(C)(C)C)ccc2c1CCCO2 [RG-115416]	164	1116	1.869	91	3618	2737	12.104	938						
